# Tests used:
# [1] = molecular target: T1, Avi-KRAS G12R (1-169) GppNHp/RAF1 RBD-3xFLAG (52-151) (Homo sapiens, UniProt P01116, G12R); assay: Raf1-KRAS G12R-GppNHP disruption HTRF assay (Biological Example 1); format: binding
# T1 construct: Avi-KRAS G12R (1-169)
# In short: (§1)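 Compound disruption of KRAS-GppNHp/RAF1 RBD binding read by HTRF after two sequential 1 h room-temperature incubations (protein mix, then detection reagents), shaken at 700 rpm. Buffer Tris pH 7.5 with MgCl2, BSA, Tween and 10% DMSO; results given as percent activity relative to DMSO (100%).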
# [2] = system: SW620 cells (KRAS G12V); assay: Cell-based pERK HTRF assay in SW620 cell (Biological Example 4); details: pERK HTRF
# In short: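 SW620 seeded in RPMI/10% FBS, next day dosed 4 h (top 1 μM, half-log, 9 pts, 0.25% DMSO). Lysed, pERK by d2/Eu cryptate HTRF, 4–24 h RT, 615 nm read.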
# [3] = system: GP2d cells (KRAS G12D); assay: Cell-based pERK HTRF assay in GP2d cell (Biological Example 2); details: GP2d (KRAS G12D) cells, pERK HTRF
# In short: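 Phospho-ERK is measured by HTRF following a 60 min compound exposure at 0.25% DMSO, with a 9-point half-log curve topping at 1 μM or 100 nM.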
# [4] = molecular target: T2, Avi-KRAS G12D (1-169) GppNHp/RAF1 RBD-3xFLAG (52-151) (Homo sapiens, UniProt P01116, G12D); assay: Raf1-KRAS G12D-GppNHP disruption HTRF assay (Biological Example 1); format: binding
# T2 construct: Avi-KRAS G12D (1-169)
# In short: as §1
# [5] = molecular target: T3, Avi-KRAS WT (1-169) GppNHp/RAF1 RBD-3xFLAG (52-151) (Homo sapiens, UniProt P01116); assay: Raf1-KRAS WT-GppNHP disruption HTRF assay (Biological Example 1); format: binding
# T3 construct: Avi-KRAS WT (1-169)
# In short: as §1
# [6] = molecular target: T4, Avi-KRAS G12V (1-169) GppNHp/RAF1 RBD-3xFLAG (52-151) (Homo sapiens, UniProt P01116, G12V); assay: Raf1-KRAS G12V-GppNHP disruption HTRF assay (Biological Example 1); format: binding
# T4 construct: Avi-KRAS G12V (1-169)
# In short: as §1
# [7] = Homo sapiens, SW-620, SW620 (KRAS G12V) cells
# [8] = KRAS G12R, GppNHp-loaded, class symbols
# [9] = Homo sapiens, SW-620, SW620 (KRAS G12V) cells, class symbols
# [10] = KRAS G12D, GppNHp-loaded, class symbols
# [11] = KRAS WT, GppNHp-loaded, class symbols
# [12] = KRAS G12V, GppNHp-loaded, class symbols
# [13] = KRAS G12R, GppNHp-loaded, Table 11
# [14] = KRAS G12D, GppNHp-loaded, Table 11
# [15] = KRAS WT, GppNHp-loaded, Table 11
# [16] = KRAS G12V, GppNHp-loaded, Table 11
# T1 sequence (P01116 1-169 isoform P01116-2 G12R): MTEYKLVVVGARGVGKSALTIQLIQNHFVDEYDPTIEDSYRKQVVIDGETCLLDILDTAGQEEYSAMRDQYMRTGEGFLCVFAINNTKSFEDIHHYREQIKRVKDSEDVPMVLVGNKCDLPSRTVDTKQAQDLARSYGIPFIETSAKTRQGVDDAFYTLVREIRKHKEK
# T4 sequence (P01116 1-169 isoform P01116-2 G12V): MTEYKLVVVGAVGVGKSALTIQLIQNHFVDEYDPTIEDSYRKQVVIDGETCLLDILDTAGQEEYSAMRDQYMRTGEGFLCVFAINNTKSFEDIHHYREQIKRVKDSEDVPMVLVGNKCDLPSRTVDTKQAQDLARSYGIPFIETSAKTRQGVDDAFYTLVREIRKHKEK
# T2 sequence (P01116 1-169 isoform P01116-2 G12D): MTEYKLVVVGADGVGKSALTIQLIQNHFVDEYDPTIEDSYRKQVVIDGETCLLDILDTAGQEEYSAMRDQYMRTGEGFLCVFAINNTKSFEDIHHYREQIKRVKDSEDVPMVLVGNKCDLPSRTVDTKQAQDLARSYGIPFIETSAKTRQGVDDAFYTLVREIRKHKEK
# T3 sequence (P01116 1-169 isoform P01116-2): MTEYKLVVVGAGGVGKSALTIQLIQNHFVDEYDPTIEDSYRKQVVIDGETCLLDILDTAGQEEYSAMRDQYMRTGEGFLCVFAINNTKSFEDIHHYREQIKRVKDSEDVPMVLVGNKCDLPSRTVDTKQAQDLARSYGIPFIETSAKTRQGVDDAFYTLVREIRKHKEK
SMILES,IC50 ([1]; KRAS G12R-GppNHp/RAF1 RBD HTRF),"IC50 [2, 7]",IC50 ([3]; GP2d),IC50 ([4]; KRAS G12D-GppNHp/RAF1 RBD HTRF),IC50 ([5]; KRAS WT-GppNHp/RAF1 RBD HTRF),IC50 ([6]; KRAS G12V-GppNHp/RAF1 RBD HTRF),"IC50 [1, 8]","IC50 [2, 9]","IC50 ([3]; GP2d, class symbols)","IC50 [4, 10]","IC50 [5, 11]","IC50 [6, 12]",further results
C[C@H]1CC[C@@H](O)CN1c1nc(OC[C@@]23CCCN2C[C@H](F)C3)nc2c(F)c(-c3ccc(F)c4sc(N)c(C#N)c34)c(C(F)(F)F)cc12 [Compound 317],100 to 1000 nM,< 100 nM,< 100 nM,100 to 1000 nM,100 to 1000 nM,1000 to 10000 nM,,,,,,,
C[C@@H]1[C@H](N(C)c2nc(OC[C@@]34CCCN3C[C@H](F)C4)nc3c(F)c(-c4ccc(F)c5sc(N)c(C#N)c45)c(C(F)(F)F)cc23)CCN1C(=O)CF [Compound 461],100 to 1000 nM,< 100 nM,,< 100 nM,< 100 nM,100 to 1000 nM,,,,,,,IC50 [3]: < 100 nM
CN(c1nc(OC[C@@]23CCCN2C[C@H](F)C3)nc2c(F)c(-c3ccc(F)c4sc(N)c(C#N)c34)c(C(F)(F)F)cc12)C1CC(F)(F)C1 [Compound 162],,< 100 nM,< 100 nM,,,,,,,,,,"IC50 [1, 13]: 100 to 1000 nM; IC50 [4, 14]: 100 to 1000 nM; IC50 [5, 15]: 100 to 1000 nM; IC50 [6, 16]: 1000 to 10000 nM"
[2H]C1([2H])CN2C[C@H](F)C[C@]2(COc2nc(N(C)[C@@H]3CCN(C(=O)C4CC4)[C@@H]3C)c3cc(C(F)(F)F)c(-c4ccc(F)c5sc(N)c(C#N)c45)c(F)c3n2)C1 [Compound 522],< 100 nM,< 100 nM,< 100 nM,100 to 1000 nM,< 100 nM,100 to 1000 nM,,,,,,,
N#Cc1c(N)sc2c(F)ccc(-c3c(C(F)(F)F)cc4c(N5CC6CC(C5)O6)nc(OC[C@@]56CCCN5C[C@@]5(CC5(F)F)C6)nc4c3F)c12 [Compound 366],1000 to 10000 nM,< 100 nM,< 100 nM,100 to 1000 nM,100 to 1000 nM,1000 to 10000 nM,,,,,,,
N#Cc1c(N)sc2c(F)ccc(-c3c(C(F)(F)F)cc4c(N5CCN6C(=O)CCC6C5)nc(OCC56CCCN5CC(F)C6)nc4c3F)c12 (stereo not drawn) [Compound 430],100 to 1000 nM,,,100 to 1000 nM,100 to 1000 nM,1000 to 10000 nM,,,,,,,IC50 ([2]; SW620 (KRAS G12V) cells): < 100 nM; IC50 [3]: < 100 nM
"N#Cc1c(N)sc2c(F)ccc(-c3c(C(F)(F)F)cc4c(N5CC6CC(C5)O6)nc(OC[C@@]56CCCN5C[C@H](F)C6)nc4c3F)c12 (single isomer, unassigned) [Compound 276]",,,,,,,,,,,,,"IC50 [1, 13]: 1000 to 10000 nM; IC50 ([2]; SW620 (KRAS G12V) cells): 100 to 1000 nM; IC50 [3]: > 1000 nM; IC50 [4, 14]: 1000 to 10000 nM; IC50 [5, 15]: 1000 to 10000 nM; IC50 [6, 16]: > 10000 nM"
N#Cc1c(N)sc2c(F)ccc(-c3c(C(F)(F)F)cc4c(N5CC(F)C5)nc(OC[C@@]56CCCN5C[C@H](F)C6)nc4c3F)c12 [Compound 222],,< 100 nM,< 100 nM,,,,,,,,,,"IC50 [1, 13]: 100 to 1000 nM; IC50 [4, 14]: 100 to 1000 nM; IC50 [5, 15]: 100 to 1000 nM; IC50 [6, 16]: 100 to 1000 nM"
C[C@@H]1[C@H](N(C)c2nc(OC[C@@]34CCCN3C[C@H](F)C4)nc3c(F)c(-c4ccc(F)c5sc(N)c(C#N)c45)c(C(F)(F)F)cc23)CCN1C(=O)C(C)(C)F [Compound 424],100 to 1000 nM,100 to 1000 nM,< 100 nM,100 to 1000 nM,100 to 1000 nM,1000 to 10000 nM,,,,,,,
CC(=O)N(C)[C@H]1CCN(c2nc(OC[C@@]34CCCN3C[C@H](F)C4)nc3c(F)c(-c4ccc(F)c5sc(N)c(C#N)c45)c(C(F)(F)F)cc23)C1 [Compound 206],,100 to 1000 nM,100 to 1000 nM,,,,,,,,,,"IC50 [1, 13]: 1000 to 10000 nM; IC50 [4, 14]: 1000 to 10000 nM; IC50 [5, 15]: 1000 to 10000 nM; IC50 [6, 16]: 1000 to 10000 nM"
CN(C)C(=O)c1cc2n(n1)CCCN(c1nc(OC[C@@]34CCCN3C[C@H](F)C4)nc3c(F)c(-c4ccc(F)c5sc(N)c(C#N)c45)c(C(F)(F)F)cc13)C2 [Compound 256],,< 100 nM,< 100 nM,,,,,,,,,,"IC50 [1, 13]: 100 to 1000 nM; IC50 [4, 14]: < 100 nM; IC50 [5, 15]: 100 to 1000 nM; IC50 [6, 16]: 100 to 1000 nM"
CN(c1nc(OC[C@@]23CCCN2C[C@H](F)C3)nc2c(F)c(-c3ccc(F)c4sc(N)c(C#N)c34)c(C(F)(F)F)cc12)[C@@H]1CNC(=O)C1 [Compound 340],100 to 1000 nM,100 to 1000 nM,< 100 nM,100 to 1000 nM,100 to 1000 nM,100 to 1000 nM,,,,,,,
CC(=O)N1CC[C@H](N(C)c2nc(OC[C@@H]3CCCN3C)nc3c(F)c(-c4ccc(F)c5sc(N)c(C#N)c45)c(C(F)(F)F)cc23)[C@@H]1C [Compound 239],,> 1000 nM,> 1000 nM,,,,,,,,,,"IC50 [1, 13]: > 10000 nM; IC50 [4, 14]: > 10000 nM; IC50 [5, 15]: > 10000 nM; IC50 [6, 16]: > 10000 nM"

# More lines, main results first:
IC50 ([1]; KRAS G12R-GppNHp/RAF1 RBD HTRF),"IC50 [2, 7]",IC50 ([3]; GP2d),IC50 ([4]; KRAS G12D-GppNHp/RAF1 RBD HTRF),IC50 ([5]; KRAS WT-GppNHp/RAF1 RBD HTRF),IC50 ([6]; KRAS G12V-GppNHp/RAF1 RBD HTRF),"IC50 [1, 8]","IC50 [2, 9]","IC50 ([3]; GP2d, class symbols)","IC50 [4, 10]","IC50 [5, 11]","IC50 [6, 12]",SMILES,further results
,,,,,,< 100 nM,< 100 nM,< 100 nM,< 100 nM,< 100 nM,< 100 nM,"CCN(c1nc(OC[C@@]23CCCN2C[C@H](F)C3)nc2c(F)c(-c3ccc(F)c4sc(N)c(C#N)c34)c(C(F)(F)F)cc12)[C@@H]1CCN(C(=O)[C@@H]2CC2(F)F)[C@@H]1C (atropisomer, axis not shown) [Compound 808]",
,,,,,,< 100 nM,< 100 nM,< 100 nM,< 100 nM,< 100 nM,< 100 nM,"CCN(c1nc(OC[C@@]23CCCN2C[C@H](F)C3)nc2c(F)c(-c3ccc(F)c4sc(N)c(C#N)c34)c(C(F)(F)F)cc12)[C@H]1CCN(C(=O)N(C)C(C)C)C1 (atropisomer, axis not shown) [Compound 585]",
,,,,,,1000 to 10000 nM,100 to 1000 nM,< 100 nM,1000 to 10000 nM,1000 to 10000 nM,1000 to 10000 nM,"CCC(=O)N1CC[C@H]2[C@@H]1CN2c1nc(OC[C@@]23CCCN2C[C@H](F)C3)nc2c(F)c(-c3ccc(F)c4sc(N)c(C#N)c34)c(C(F)(F)F)cc12 (atropisomer, axis not shown) [Compound 642]",
,,,,,,< 100 nM,< 100 nM,< 100 nM,< 100 nM,< 100 nM,< 100 nM,"[2H][C@]1(N(CC)c2nc(OC[C@@]34CCCN3C[C@H](F)C4)nc3c(F)c(-c4ccc(F)c5sc(N)c(C#N)c45)c(C(F)(F)F)cc23)CCN(C(=O)OC)C1 (atropisomer, axis not shown) [Compound 800]",
,,,,,,< 100 nM,< 100 nM,< 100 nM,< 100 nM,100 to 1000 nM,< 100 nM,"CCN(c1nc(OC[C@@]23CCCN2C[C@H](F)C3)nc2c(F)c(-c3ccc(F)c4sc(N)c(C#N)c34)c(C(F)(F)F)cc12)[C@H]1CCN(C(=O)OCC2CC2)C1 (atropisomer, axis not shown) [Compound 620]",
,,,,,,100 to 1000 nM,< 100 nM,< 100 nM,100 to 1000 nM,100 to 1000 nM,100 to 1000 nM,CCN(c1nc(OC[C@]23C[C@@H](F)CN2CC2(CC2)C3)nc2c(F)c(-c3ccc(F)c4sc(N)c(C#N)c34)c(C(F)(F)F)cc12)[C@H]1CCN(C(=O)C(C)C)C1 [Compound 566],
,,,,,,< 100 nM,< 100 nM,< 100 nM,< 100 nM,< 100 nM,< 100 nM,"COC(=O)N1CC[C@H](N(C)c2nc(OC[C@@]34CCCN3C[C@H](F)C4)nc3c(F)c(-c4ccc(F)c5sc(N)c(C#N)c45)c(C(F)(F)F)cc23)C1 (atropisomer, axis not shown) [Compound 756]",
,,,,,,< 100 nM,< 100 nM,< 100 nM,< 100 nM,< 100 nM,< 100 nM,"CCN(c1nc(OC[C@@]23CCCN2C[C@H](F)C3)nc2c(F)c(-c3ccc(F)c4sc(N)c(C#N)c34)c(C(F)(F)F)cc12)[C@H]1CCN(C(=O)O[C@H]2CCOC2)C1 (atropisomer, axis not shown) [Compound 682]",
